# Measurements: patent US8741892B2, “Compounds” (Boehringer Ingelheim International GmbH, priority 2011, dated 2014)
# Molecular target: T1, human recombinant mGluR5 (Homo sapiens, UniProt P41594)
# T1 construct: expressed in transfected cells; host or cells: HEK 293
# Assay: positive modulation of mGluR5, calcium based FLIPR assay
# Details: HEK 293 cell line expressing human recombinant mGluR5; EC50 of the modulation from peak Ca fluorescence signal after glutamate at approx. 5% basal stimulation
# Summary of the method: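 HEK 293 cells expressing human recombinant mGluR5, Calcium-4 dye-loaded in Ringer solution pH 7.4. Compound (1% DMSO final) preincubated 5 min, then glutamate at ~5% of maximal effect added; peak Ca2+ fluorescence gives EC50 by nonlinear regression, normalized to DMSO (100%) and 10 μM CDPPB (200%) controls.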
# T1 sequence (P41594 21-1212): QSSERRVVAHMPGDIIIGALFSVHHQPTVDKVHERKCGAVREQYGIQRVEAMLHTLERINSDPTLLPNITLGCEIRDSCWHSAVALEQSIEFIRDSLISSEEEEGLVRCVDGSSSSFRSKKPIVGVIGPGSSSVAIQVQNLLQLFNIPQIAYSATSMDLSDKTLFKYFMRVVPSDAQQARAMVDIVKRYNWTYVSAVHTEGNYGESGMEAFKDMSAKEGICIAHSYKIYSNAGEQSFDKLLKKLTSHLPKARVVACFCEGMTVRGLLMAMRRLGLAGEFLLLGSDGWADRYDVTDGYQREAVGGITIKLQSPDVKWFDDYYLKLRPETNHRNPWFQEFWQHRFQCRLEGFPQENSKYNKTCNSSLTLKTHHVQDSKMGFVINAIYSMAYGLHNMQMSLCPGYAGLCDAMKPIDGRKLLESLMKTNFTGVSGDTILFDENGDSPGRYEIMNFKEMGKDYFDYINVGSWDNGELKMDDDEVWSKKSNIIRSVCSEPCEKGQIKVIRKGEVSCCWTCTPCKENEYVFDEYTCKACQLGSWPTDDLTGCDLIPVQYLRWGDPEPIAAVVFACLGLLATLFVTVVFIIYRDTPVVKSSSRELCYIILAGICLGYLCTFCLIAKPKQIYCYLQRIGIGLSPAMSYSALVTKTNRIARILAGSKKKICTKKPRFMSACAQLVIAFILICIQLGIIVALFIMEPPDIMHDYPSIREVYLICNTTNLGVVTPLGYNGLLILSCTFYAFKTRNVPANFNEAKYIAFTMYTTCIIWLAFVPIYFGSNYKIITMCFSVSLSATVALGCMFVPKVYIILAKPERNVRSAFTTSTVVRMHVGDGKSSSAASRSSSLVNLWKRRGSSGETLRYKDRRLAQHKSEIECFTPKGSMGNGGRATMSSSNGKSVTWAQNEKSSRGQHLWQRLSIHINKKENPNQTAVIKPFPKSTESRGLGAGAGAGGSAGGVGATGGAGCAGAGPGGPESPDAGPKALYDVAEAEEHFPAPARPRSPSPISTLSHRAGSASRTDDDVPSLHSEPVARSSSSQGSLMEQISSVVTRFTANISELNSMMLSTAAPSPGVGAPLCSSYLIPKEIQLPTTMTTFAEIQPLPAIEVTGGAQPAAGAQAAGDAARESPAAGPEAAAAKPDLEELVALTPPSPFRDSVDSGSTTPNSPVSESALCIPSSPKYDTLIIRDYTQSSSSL
row,SMILES,EC50 [nM]
1,CCc1nnc(N2CCN(C(=O)Cn3nc(-c4ccc(F)c(C)c4)cc3-c3ccccc3)CC2)o1 [Example 7.02.160],23
2,COc1nc2c(s1)CCN(C(=O)Cn1nc(-c3ccc(F)c(C)c3)cc1-c1ccccc1)CC2 [Example 7.02.161],35
3,CCc1cc(-c2ccc(F)c(C)c2)nn1CC(=O)N1CCN(c2nnc(C(F)(F)F)s2)CC1 [Example 7.02.162],120
4,CCc1nnc(N2CCN(C(=O)Cn3nc(-c4ccc(F)c(C)c4)cc3CC)CC2)o1 [Example 7.02.163],122
5,CCc1cc(-c2ccc(F)c(C)c2)nn1CC(=O)N1CCc2nc(OC)sc2CC1 [Example 7.02.164],46
6,Cc1coc(N2CCN(C(=O)Cn3nc(-c4ccc(F)c(C)c4)cc3-c3ccccc3)CC2)n1 [Example 7.02.165],18
7,CCCc1cc(-c2ccc(F)c(C)c2)nn1CC(=O)N1CCN(c2nc(C)co2)CC1 [Example 7.02.166],149
8,CCc1cc(-c2ccc(F)c(C)c2)nn1CC(=O)N1CCN(c2nc(C)co2)CC1 [Example 7.02.167],370
9,Cc1coc(N2CCN(C(=O)Cn3nc(-c4ccc(F)c(C)c4)cc3C)CC2)n1 [Example 7.02.168],604
10,Cc1noc(N2CCN(C(=O)Cn3nc(-c4ccc(F)c(C)c4)cc3-c3ccccc3)CC2)n1 [Example 7.02.169],20
11,Cc1nc2c(s1)CCN(C(=O)Cn1nc(-c3ccc(F)c(C)n3)cc1-c1ccccc1)CC2 [Example 7.02.170],30
12,Cc1nc(-c2cc(-c3ccccc3)n(CC(=O)N3CCc4nc(N)sc4CC3)n2)ccc1F [Example 7.02.171],68
13,Cc1nc2c(s1)CN(C(=O)Cn1nc(-c3ccc(F)c(C)n3)cc1-c1ccccc1)C2 [Example 7.02.172],64
14,Cc1nc2c(o1)CN(C(=O)Cn1nc(-c3ccc(F)c(C)n3)cc1-c1ccccc1)C2 [Example 7.02.173],38
15,Cc1nc(N2CCN(C(=O)Cn3nc(-c4ccc(F)c(C)n4)cc3-c3ccccc3)CC2)no1 [Example 7.02.174],39
16,Cc1nc2c(s1)CCN(C(=O)Cn1nc(-c3cc(C)c(F)cn3)cc1-c1ccccc1)CC2 [Example 7.02.175],59
17,Cc1nc2c(s1)CN(C(=O)Cn1nc(-c3cc(C)c(F)cn3)cc1-c1ccccc1)C2 [Example 7.02.176],221
18,Cc1nc2c(o1)CN(C(=O)Cn1nc(-c3cc(C)c(F)cn3)cc1-c1ccccc1)C2 [Example 7.02.177],111
19,Cc1nc(N2CCN(C(=O)Cn3nc(-c4cc(C)c(F)cn4)cc3-c3ccccc3)CC2)no1 [Example 7.02.178],69
20,Cc1nnc(N2CCN(C(=O)Cn3nc(-c4ccc(F)c(C)n4)cc3-c3ccccc3)CC2)o1 [Example 7.02.179],236
21,Cc1nnc(N2CCN(C(=O)Cn3nc(-c4cc(C)c(F)cn4)cc3-c3ccccc3)CC2)o1 [Example 7.02.180],1070
22,CCc1cc(-c2cc(C)c(F)c(C)c2)nn1CC(=O)N1Cc2nc(C)sc2C1 [Example 7.02.181],398
23,CCc1cc(-c2cccc(C#N)c2)nn1CC(=O)N1CC=C(c2ncc(C)o2)CC1 [Example 7.02.182],65
24,CCc1cc(-c2cccc(C#N)c2)nn1CC(=O)N1CCC(c2ncc(C)o2)CC1 [Example 7.02.183],330
25,CCc1cc(-c2cccc(C#N)c2)nn1CC(=O)N1CCc2nc(C)sc2CC1 [Example 7.02.184],132
26,CCc1cc(-c2cccc(C#N)c2)nn1CC(=O)N1CCc2nc(N)sc2CC1 [Example 7.02.185],258
27,CCc1cc(-c2cccc(C#N)c2)nn1CC(=O)N1Cc2nc(C)sc2C1 [Example 7.02.186],326
28,CCc1cc(-c2cccc(C#N)c2)nn1CC(=O)N1CCN(c2nnc(C)o2)CC1 [Example 7.02.187],1610
29,Cc1cnc(C2=CCN(C(=O)Cn3nc(-c4cccc(C#N)c4)cc3-c3ccccc3)CC2)o1 [Example 7.02.188],19
30,Cc1nc2c(s1)CCN(C(=O)Cn1nc(-c3cccc(C#N)c3)cc1-c1ccccc1)CC2 [Example 7.02.189],15
